# According to patent US20120046253A1, “STABLE PHARMACOLOGICALLY ACTIVE COMPOSITIONS INCLUDING VITAMIN D CONTAINING AND CORTICOSTEROID COMPOUNDS WITH LOW pH COMPATIBILITY” (priority 2006, published 2012):
# Legend:
# [1] = reportedly; cited from earlier work
# [2] = Stability of the calcipotriene and betamethasone dipropionate composition at 55° C. (quantitative HPLC); type: physicochemical; conditions: Example 1 ointment
# Procedure: (§1) In both of the above cases, stability is measured after incubation in a closed container at the recited temperature for the recited amount of time; stability is determined by any quantitative assay for the recited component, and is preferably determined by HPLC methodologies known in the art.
# [3] = Stability of the calcipotriene and betamethasone dipropionate composition at 40° C. (quantitative HPLC); type: physicochemical
# Procedure: as §1
# The amount of the recited components in Table 1 were measured by quantitiative HPLC 1-2 days after the cooling (Time zero) and at the recited times after storage at the recited temperatures.
# The amount of the recited components in Table 1 were measured by quantitiative HPLC 1-2 days after the cooling (Time zero) and at the recited times after storage at the recited temperatures).
# [4] = asserted in U.S. Pat. No. 5,763,426; cited from earlier work
Assay (%) 3 days ([2]; stored at 55° C. 3 days),Assay (%) Time zero ([2]; time zero (Table 2)),"Assay (%) Time zero ([3]; Example 1 ointment (medium chain triglyceride), 1-2 days after cooling, HPLC)","Assay (%) 1 months ([3]; Example 1 ointment, stored at 40° C. 1 month)","Assay (%) 2 months ([3]; Example 1 ointment, stored at 40° C. 2 months)","Assay (%) 3 months ([3]; Example 1 ointment, stored at 40° C. 3 months)","Assay Time zero ([3]; Example 2 ointment (polysorbate 80), time zero)","Assay 1 months ([3]; Example 2 ointment, stored at 40° C. 1 month)","Assay 2 months ([3]; Example 2 ointment, stored at 40° C. 2 months)",Compound,pH at which most stable [1],stability of crystal form [4]
96.4%,95.8%,95.8%,98.0%,97.1%,100.5%,99.1%,97.9%,97.4%,"C=C1/C(=C\C=C2/CCC[C@]3(C)[C@@H]([C@H](C)/C=C/[C@@H](O)C4CC4)CC[C@@H]23)C[C@@H](O)C[C@@H]1O [Calcipotriene, calcipotriene]",greater than 8,–
–,–,–,–,–,–,–,–,–,C=C1/C(=C\C=C2/CCC[C@]3(C)[C@@H]([C@H](C)/C=C/[C@@H](O)C4CC4)CC[C@@H]23)C[C@@H](O)C[C@@H]1O [calcipotriol hydrate],–,surprisingly stable
